Patent publication US20230247992A1, “ARTHROPOD CONTROL COMPOSITION” (Firmenich SA, priority 2020, published 2023)
Read-outs that look alike come from different tables or passages of the source.

Assays:
Format in all cases: in vivo
[1] = system: Aedes aegypti; experiment: in vitro Warm Body assay, substance introduced in the cage air by forced evaporation (spatial repellence)
Method: (§1) The controlling effect, repellence & spatial repellence, according to the present invention is determined by testing the Warm Body assay against the yellow fever mosquito, Aedes aegypti Rockefeller strain. […] Observations of controlling efficacy were made on host-seeking females of uniform age, 5 to 10 days old selected as mentioned in the publication mentioned hereinabove. Tested hungry females had access to 10% sugar solution but were not blood-fed. Further information is provided in the accompanying examples.
(§2) The published protocol has been adapted in not manually counting the landing mosquitoes but automatically using an automatic counting software, the switch from Anopheles gambiae to A. aegypti led to a decrease of mosquitoes’ number placed in the tested cage due to the size difference (i.e. 30 mosquitoes instead of 50) and to an increase of lighting as A. aegypti is a diurnal mosquitoes (i.e. 150 lux instead of 4 lux). Further information is provided in the accompanying examples.,
(§3) The controlling effect of the compositions according to the present invention was assessed using an adapted Warm Body assay as defined in Kröber T, Kessler S, Frei J, Bourquin M, Guerin PM. 2010. An in vitro assay for testing mosquito controlling compounds employing a warm body and carbon dioxide as a behavioral activator. J Am Mosq Control Assoc. 26:381-386. In this in-vitro assay the number of mosquito landing on a warm body, simulating an attractive host treated with the tested stimuli, was measured in order to assess the repellence effect.
(§4) The published protocol has been adapted in not manually counting the landing mosquitoes but automatically using an automatic counting software, the switch from Anopheles gambiae to Aedes aegypti led to a decrease of mosquitoes’ number placed in the tested cage due to the size difference (i.e. 30 mosquitoes instead of 50) and to an increase of lighting as A. aegypti is a diurnal mosquitoes (i.e. 150 lux instead of 4 lux).
(§5) In addition, since the inventors were interested by assessing spatial repellence added or not to a deterrent effect, the substance was applied using two different technics. Whether, as in Kröber et al. (2010), both deterrent and repellent effect were investigated (i.e. similar effect than most body care applications such as lotion) and the substances was applied on a sandblasted glass Petri dish placed on top of the warm body. Whether only the spatial repellence was investigated (i.e. similar effect than most home care applications such as liquid electric dispenser) and the substance was introduced in the cage space thanks to a forced evaporation system as described in Chappuis C J-F, Niclass Y, Vuilleumier C, Starkenmann C. 2015. Quantitative Headspace Analysis of Selected Odorants from Latrines in Africa and India. Environ. Sci. Technol. 49:6134-6140.
(§6) As stated in Kröber et al. (2010), selected 10-12 days old hungry females, that had ad libitum access to 10% sugar solution but were not blood-fed, were selected for the assay.
The forced evaporation system allows to fill the volume of the cage with stimuli tested, (2-methyl-4-oxo-3-prop-2-ynylcyclopent-2-en-1-yl) 2,2-dimethyl-3-(2-methylprop-1-enyl)cyclopropane-1-carboxylate (prallethrin) and N,N-diethyl-3-methylbenzamide (DEET) being used as benchmarks. In order to limit potential dead volumes in the cage, five flushes of the cage were made before starting the 2 minutes test during which the number of mosquito landings was counted.

[2] = system: Aedes aegypti; experiment: in vitro Warm Body assay, substance applied on glass Petri dish on top of the warm body (deterrence and repellence)
Method: as §1, §2, §3, §4, §5, §6
On the sandblasted glass Petri dish covering the warm body (28.3 cm^2), 100 µL of the substances diluted at different concentrations in ethanol was applied. The number of mosquito landing on the warm body was counted for each stimuli, N,N-diethyl-3-methylbenzamide (DEET) and ethyl 3-[acetyl(butyl)amino]propanoate (IR3535) being used as benchmarks and pure ethanol as control.

[3] = system: Ixodes ricinus; experiment: whole plant or invertebrate; conditions: for pest or weed control at 1 µg/cm2, 1 µg/cm2 / pest or weed control at 5 µg/cm2, 5 µg/cm2 / pest or weed control at 25 µg/cm2, 25 µg/cm2: Ixodes ricinus, read-out: mean percentage of ticks affected
[4] = 0.0017 µg/L air, without substance 54.7±3.2
[5] = 0.017 µg/L air, without substance 54.7±3.2
[6] = 0.17 µg/L air, without substance 54.7±3.2
[7] = 1.7 µg/L air, without substance 54.7±3.2
[8] = 17 µg/L air, without substance 54.7±3.2
[9] = 0.04% in ethanol, ethanol control 59.3±6.9 landings
[10] = 1% in ethanol, ethanol control 59.3±6.9 landings
[11] = […] in ethanol, ethanol control 59.3±6.9 landings

Structure (SMILES) | number of mosquitoes landing within 2 minutes on the warm body, air in the cage saturated with stimulus [1, 4] | number of mosquitoes landing within 2 minutes on the warm body, air in the cage saturated with stimulus [1, 5] | number of mosquitoes landing within 2 minutes on the warm body, air in the cage saturated with stimulus [1, 6] | number of mosquitoes landing within 2 minutes on the warm body, air in the cage saturated with stimulus [1, 7] | number of mosquitoes landing within 2 minutes on the warm body, air in the cage saturated with stimulus [1, 8] | number of mosquitoes landing within 2 minutes on the warm body [2, 9] | number of mosquitoes landing within 2 minutes on the warm body [2, 10] | number of mosquitoes landing within 2 minutes on the warm body [2, 11] | pest or weed control at 1 µg/cm2, 1 µg/cm2 [3] [%] | pest or weed control at 5 µg/cm2, 5 µg/cm2 [3] [%] | pest or weed control at 25 µg/cm2, 25 µg/cm2 [3] [%] | further results
CC(C=O)Cc1ccc(C(C)C)cc1 (stereo not drawn) [2-methyl-3-(4-propan-2-ylphenyl)propanal] | 26.3 | 21.3 | 7.8 | 5.0 | 7.5 | 20.0 | 1.0 | 49.0 | – | – | – | pest or weed control at 1 µg/cm2, 1 µg/cm2 ([3]; 1 µg/cm^2, diluted in ethanol, ethanol control 1.0±1.2%): 7%; pest or weed control at 5 µg/cm2, 5 µg/cm2 ([3]; 5 µg/cm^2, diluted in ethanol, ethanol control 1.0±1.2%): 46%; pest or weed control at 25 µg/cm2, 25 µg/cm2 ([3]; 25 µg/cm^2, diluted in ethanol, ethanol control 1.0±1.2%): 85%
C/C=C/c1ccc(O)c(OC)c1 [2-methoxy-4-[(E)-prop-1-enyl]phenol] | – | – | – | – | – | – | – | – | 8 | 67 | 83 | number of mosquitoes landing within 2 minutes on the warm body, air in the cage saturated with stimulus ([1]; 0.017 µg/L air, without substance 54.1±4.9): 12.0; number of mosquitoes landing within 2 minutes on the warm body, air in the cage saturated with stimulus ([1]; 0.17 µg/L air, without substance 54.1±4.9): 4.0; number of mosquitoes landing within 2 minutes on the warm body, air in the cage saturated with stimulus ([1]; 1.7 µg/L air, without substance 54.1±4.9): 11.0; number of mosquitoes landing within 2 minutes on the warm body ([2]; 0.04% in ethanol, ethanol control 67.0±8.8 landings): 14.0; number of mosquitoes landing within 2 minutes on the warm body ([2]; 1% in ethanol, ethanol control 67.0±8.8 landings): 0.0; number of mosquitoes landing within 2 minutes on the warm body ([2]; […] in ethanol, ethanol control 67.0±8.8 landings): 57.0; landings per minute ([2]; concentration of 0.04%): ~ 10 landings per minute
C=C(C)[C@@H]1CC=C(C)C(=O)C1 [(5R)-2-methyl-5-prop-1-en-2-ylcyclohex-2-en-1-one] | 20.0 | 27.0 | 2.0 | 2.0 | 2.0 | 16.0 | 3.0 | 24.0 | 50 | 17 | 57 | –
C=Cc1ccc(O)c(OC)c1 [4-ethenyl-2-methoxyphenol] | – | – | – | – | – | – | – | – | 17 | 46 | 100 | number of mosquitoes landing within 2 minutes on the warm body, air in the cage saturated with stimulus ([1]; 0.0017 µg/L air, without substance 56.0±3.6): 11.0; number of mosquitoes landing within 2 minutes on the warm body, air in the cage saturated with stimulus ([1]; 0.017 µg/L air, without substance 56.0±3.6): 15.0; number of mosquitoes landing within 2 minutes on the warm body, air in the cage saturated with stimulus ([1]; 0.17 µg/L air, without substance 56.0±3.6): 0.0; number of mosquitoes landing within 2 minutes on the warm body, air in the cage saturated with stimulus ([1]; 1.7 µg/L air, without substance 56.0±3.6): 3.0; number of mosquitoes landing within 2 minutes on the warm body, air in the cage saturated with stimulus ([1]; 17 µg/L air, without substance 56.0±3.6): 2.0; landings in 2 minutes ([1]; dose of 0.17 µg/L of air): less than five; number of mosquitoes landing within 2 minutes on the warm body ([2]; 0.04% in ethanol, ethanol control 67.1±9.1 landings): 5.0; number of mosquitoes landing within 2 minutes on the warm body ([2]; 1% in ethanol, ethanol control 67.1±9.1 landings): 0.0; number of mosquitoes landing within 2 minutes on the warm body ([2]; […] in ethanol, ethanol control 67.1±9.1 landings): 36.0; ticks prevented from climbing up in search of a feeding site ([3]; highest concentration of 1% (25 µg/cm^2)): all tested ticks
O=c1ccc2ccccc2o1 [chromen-2-one] | 36.0 | 3.0 | 10.0 | 1.0 | 0.0 | 0.0 | 1.0 | 118.0 | 27 | 71 | 80 | tick response compared with the benchmark IR3535 ([3]; concentrations tested): response similar to the benchmark IR3535
CC(C)=CCC/C(C)=C/C=O [(2E)-3,7-dimethylocta-2,6-dienal] | 25.3 | 15.7 | 15.3 | 14.7 | 23.0 | 16.0 | 2.0 | 89.0 | 15 | 0 | 58 | decrease of landings ([1]; identical at all concentrations tested): ~ 67%
